According to ChEMBL document CHEMBL3407347, “Discovery of new acylaminopyridines as GSK-3 inhibitors by a structure guided in-depth exploration of chemical space around a pyrrolopyridinone core” (Bioorg Med Chem Lett, 2015):
The source made the active and inactive calls. No cut-off for these calls is given here.

Test system: not listed separately
Experiment: Ratio of brain to plasma in LaFerla 3xTg-C57BL6 mouse at 30 mg/kg, po
Assay type: ADME, organism-based
Parameters: dose 30 mg/kg, route oral
Settings: brain and plasma, read-out: BPR

| Kp | SMILES |
| --- | --- |
| 0.26 | COc1nc(-c2ccnc(NC(=O)C3CC3)c2)sc1C(N)=O |

Molecular target: Glycogen synthase kinase-3 beta (Homo sapiens, UniProt P49841)
Sequence (P49841 whole entry): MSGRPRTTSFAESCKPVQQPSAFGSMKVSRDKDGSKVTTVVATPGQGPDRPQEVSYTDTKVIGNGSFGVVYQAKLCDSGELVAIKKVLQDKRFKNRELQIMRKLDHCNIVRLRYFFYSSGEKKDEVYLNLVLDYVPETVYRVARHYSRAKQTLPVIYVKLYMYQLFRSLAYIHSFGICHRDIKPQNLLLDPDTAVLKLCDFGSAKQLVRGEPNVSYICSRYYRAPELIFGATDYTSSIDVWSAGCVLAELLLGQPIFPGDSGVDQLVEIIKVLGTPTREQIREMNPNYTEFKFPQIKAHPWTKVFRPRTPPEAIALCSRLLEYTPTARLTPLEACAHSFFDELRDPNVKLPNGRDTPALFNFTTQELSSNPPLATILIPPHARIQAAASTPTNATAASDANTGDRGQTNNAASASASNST
Experiment: Inhibition of GSK3beta (unknown origin) activity by competitive binding assay
Settings: not given

| SMILES | IC50 [nM] |
| --- | --- |
| COc1cc(-c2ccnc(NC(=O)C3CC3)c2)cnc1C(N)=O | 7 |
| O=C1NCCCc2cc(-c3ccnc(NC(=O)C4CC4)c3)ccc21 | 2.4 |
| NC(=O)c1sc(-c2ccnc(NC(=O)C3CC3)c2)nc1OC1CCC1 | 0.37 |
| CC(C)Oc1cc(-c2ccnc(NC(=O)C3CC3)c2)ncc1C(N)=O | 4.4 |
| Cc1nc(-c2ccnc(NC(=O)C3CC3)c2)sc1C(N)=O | 37 |
| CC(C)Oc1nc(-c2ccnc(NC(=O)C3CC3)c2)sc1C(N)=O | 0.45 |
| NC(=O)c1cnc(-c2ccnc(NC(=O)C3CC3)c2)cn1 | 30 |
| O=C(Nc1cc(-c2ccc3ccncc3c2)ccn1)C1CC1 | 74 |
| COc1nc(-c2ccnc(NC(=O)C3CC3)c2)sc1C(N)=O | 1.1 |
| O=C(Nc1cc(-c2ccc3ncccc3c2)ccn1)C1CC1 | 7.5 |
| NC(=O)c1sc(-c2ccnc(NC(=O)C3CC3)c2)nc1OCC1CC1 | 0.29 |

Further compounds by falling IC50, results first:

| IC50 [nM] | SMILES |
| --- | --- |
| 730 | O=C1CCCc2cc(-c3ccnc(NC(=O)C4CC4)c3)ccc2N1 |
| 610 | O=C(Nc1cc(-c2ccc3ccccc3c2)ccn1)C1CC1 |
| 240 | O=C(Nc1cc(-c2ccc3cccnc3c2)ccn1)C1CC1 |
| 140 | NC(=O)c1ccc(-c2ccnc(NC(=O)C3CC3)c2)nn1 |
| 90 | NC(=O)c1ccc(-c2ccnc(NC(=O)C3CC3)c2)cn1 |
| 30 | COc1sc(-c2ccnc(NC(=O)C3CC3)c2)nc1C(N)=O |
| 24 | Cn1nc(C(N)=O)cc1-c1ccnc(NC(=O)C2CC2)c1 |
| 22 | COc1cc(-c2ccnc(NC(=O)C3CC3)c2)ncc1C(N)=O |
| 13 | NC(=O)c1cnc(-c2ccnc(NC(=O)C3CC3)c2)s1 |
| 11 | O=C1NCc2cc(-c3ccnc(NC(=O)C4CC4)c3)ccc21 |
| 6.8 | NC(=O)c1cnc(-c2ccnc(NC(=O)C3CC3)c2)cc1OCC(F)(F)F |
| 5.9 | COc1nc(-c2ccnc(NC(=O)C3CC3)c2)ncc1C(N)=O |
| 4.7 | O=C1NCCOc2cc(-c3ccnc(NC(=O)C4CC4)c3)ccc21 |
| 2.4 | O=C1NCCc2cc(-c3ccnc(NC(=O)C4CC4)c3)ccc21 |
| 0.83 | CC(C)Oc1nc(-c2ccnc(NC(=O)C3CC3)c2)ncc1C(N)=O |

Organism: Homo sapiens
Experiment: Selectivity ratio for GSK3beta (unknown origin) to CK2A2 (unknown origin)
Settings: not given

| Ratio | SMILES |
| --- | --- |
| > 67 | COc1sc(-c2ccnc(NC(=O)C3CC3)c2)nc1C(N)=O |
| 10 | COc1nc(-c2ccnc(NC(=O)C3CC3)c2)sc1C(N)=O |

Test system: Mus musculus
Experiment: Reduction in pTau396 level in LaFerla 3xTg-C57BL6 mouse at 30 mg/kg, po by ELISA
Assay type: functional, organism-based
Parameters: dose 30 mg/kg
Settings: not given

| SMILES | inhibition |
| --- | --- |
| O=C1NCCc2cc(-c3ccnc(NC(=O)C4CC4)c3)ccc21 | Active |
| COc1nc(-c2ccnc(NC(=O)C3CC3)c2)sc1C(N)=O | Active |
